Data from patent US20230293614A1, “COMPOSITIONS AND METHODS OF TREATING UPS-ASSOCIATED DISEASES” (Board of Supervisors of Louisiana State University and …, priority 2020, published 2023).

Experiments:
Assay type in all cases: cell-based
[1] = MTT cellular viability assay, MM.1S; details: human, MM.1S cells, read-out: percentage of viable cells
Experimental: (§1) The effect of PMI-5011 and bioactive compounds on the viability of cells was tested using a standard colorimetric MTT assay. The MTT Cell Proliferation Assay Kit was purchased from VWR, Radnor, Pa. MM.1S and OPM2 cells were treated with 10 μg/mL of PMI-5011 and 1, 10, and 30 μg/mL of DMC-1, DMC-2, KOE and davidigenin and plated at a density of 10^6 cells/mL in a 96-well plate with each well containing 250 μL of the sample. The plated cells were then incubated at 37° C. for 16 h. 10 μg/mL for PMI-5011 and a 16-h treatment period was used in this study based on previous findings by Yu et al.^24 Parallel plates were prepared for positive and negative solvent vehicle control with the same volume of DMSO and ethanol as for the treated cells. On the day of the experiment, the 96-well plates were centrifuged at 1000×g at 4° C. for 5 min in a microplate compatible centrifuge. The media was discarded and 50 μL of serum-free media and 50 μL of the MTT reagent were added into each well. For a background control, 50 μL of the MTT reagent was added into a well containing media only (no cells). The plate was incubated at 37° C. for 3 h in the dark. After incubation, 150 μL of the MTT solvent was added into each well. The plate was wrapped in a foil and placed on an orbital shaker for 15 min. Finally, the absorbance was measured at λex=544 nm and λem=590 nm using a Wallac 1420 VICTOR2 multilabel HTS counter fluorometry (Perkin Elmer (Waltham, Mass.). The percentage viable cells was obtained by Eq. 1.
(§2) % Viable Cells=S-N/C-N×100 (Eq. 1)
(§3) Where, S denotes raw absorbance values from samples, N denotes average absorbance value of the background control and C denotes the highest average absorbance value of positive vehicle control. The obtained percentage cytotoxicity values were then statistically analyzed for their significance. Each data point represents triplicate data points from duplicate experiments. The effect of PMI-5011 and the selected bioactive compounds on C2C12 cell viability has previously been reported.^24

[2] = tested on: deubiquitinating enzymes (DUBs); assay: DUB activity (Z-LRGG-AMC cleavage) in lysates of treated OPM2 cells; details: for Vmax / effect on DUB activity vs DMSO control / Km / n (Hill coefficient): 16 h
Experimental: OPM2 cells were maintained in RPMI 1640 media supplemented with 12% FBS, 21.8 mM glucose, 8.6 mM HEPES (pH 7.4) and 1.0 mM sodium pyruvate. MM.1S cell line were maintained in RPMI 1640 media supplemented with 10% FBS. The cells were all cultured in T175 flasks (VWR, Radnor, Pa.). All media components were from Corning, Atlanta, Ga. unless otherwise noted. To test the effect of the ethanolic extract and bioactive compounds on DUB activity, cells were exposed to a 16-h pretreatment with 10 μg/mL of PMI-5011 and 1, 10, 30 μg/mL concentrations of DMC-1, DMC-2, KOE, and davidigenin before lysing the cells for experimentation. All compounds were reconstituted in DMSO to obtain stock concentrations, which was further diluted in culture media to obtain the desired experimental concentrations. For vehicle control, a subpopulation of cells was treated with pure DMSO diluted in a similar manner for the same duration. Upon treatment, cell lysates (both OPM2 and MM.1S) were generated by harvesting 1×10^6 cells/mL, followed by washing 2× and pelleting in phosphate buffered saline (PBS; 137 mM NaCl, 10 mM Na2HPO4, […], and 1.75 mM KH2PO4 at pH 7.4). The cell pellet was re-suspended in an approximately equivalent volume of M-PER to the volume of the cell pellet (1000-2000 μL) then vortexed for 10 min at room temperature. Following this, the mixture was centrifuged at 14,000×g for 15 min at 4° C. and the supernatant transferred to a centrifuge tube and stored on ice until use. Total protein concentration was determined using a NanoDrop 2000c (Thermo Scientific, Madison, Wis.).
The commercial DUB reporter, Z-LRGG-AMC (substrate) (SEQ ID NO: 1) was reconstituted in DMSO to obtain a final stock concentration of 1.44 mM. This stock reporter was diluted as needed in assay buffer (50 mM HEPES, pH 7.4, 150 mM NaCl, 2 mM DTT, and 0.02% Tween-20) supplemented with 4 mg/mL cell lysates (source of DUBs) to reach the desired reporter concentration with a final volume of 100 μL in a 96-well plate. OPM2 and MM.1S cell lysates from different treatments (10 μg/mL of PMI-5011; 1, 10, and 30 μg/mL of DMC-1, DMC-2, KOE, davidigenin and control vehicle DMSO) and C2C12 cell lysates were used to interrogate the effect of the ethanolic extract and selected bioactive compounds on DUB activity. Reporter only and lysates only (noise/background) samples were included in the 96-well plate to confirm that the rates observed were due to DUB-mediated hydrolysis initiated by the cell lysates. The 96-well plate was maintained at a temperature of 30° C. in the dark for the duration of the experiment. The fluorescence signals emitted as a result of DUB-mediated cleavage of AMC (λex=355 nm and λem=460 nm) were quantified using a Wallac 1420 VICTOR2 multilabel HTS counter fluorometry (Perkin Elmer (Waltham, Mass.). Readings were collected every 30 min for 6 h. The normalized signals were obtained by comparing the treatment with noise and background fluorescence values which were then statistically analyzed for their significance. Each data point represents triplicate data points from duplicate experiments. A calibration curve was generated for known concentrations of AMC to correlate the fluorescence signal (AU) to concentration (μM). The approximate concentration of free fluorophore was used to calculate reaction rates (μM/min) for each substrate concentration using linear regression analysis.
All data visualization, interpretation and curve-fittings were performed using Origin Pro (OriginLab, Northampton, MA) while statistical analyses of experimental data were carried out using SAS 9.4 (SAS Solutions). The analyses of enzyme-substrate reactions in all cell lysates started with scatter plotting the fluorometry signals (p,M) measured for each substrate concentration against time (min). Fluorescence signals measured for each substrate concentration remained stable during the first 30 min, indicating there was a 30-minute lag period before reaction initiation. […]

[3] = MTT cellular viability assay, OPM2; details: human, OPM2 cells, read-out: percentage of viable cells
Experimental: as §1, §2, §3

COc1ccc(CCC(=O)c2ccc(O)cc2O)cc1 [DMC-2, 1-(2,4-dihydroxyphenyl)-3-(4-methoxyphenyl)propan-1-one]
viability at 16 h, 1 μg/mL ([1]; 1 μg/mL): ~100% | viability at 16 h, 30 μg/mL ([1]; 30 μg/mL): ~65% | Vmax ([2]; OPM2, 1 μg/mL): 21.38 ± 2.68 µM/min | effect on DUB activity vs DMSO control ([2]; OPM2, 1 μg/mL): significantly enhanced | Vmax ([2]; OPM2, 10 μg/mL): 22.71 ± 1.64 µM/min | effect on DUB activity vs DMSO control ([2]; OPM2, 10 μg/mL): significantly enhanced | Vmax ([2]; OPM2, 30 μg/mL): 184.79 ± 22.09 µM/min | effect on DUB activity vs DMSO control ([2]; OPM2, 30 μg/mL): significantly enhanced | effect of increasing concentration on DUB activity (normalized Vmax) ([2]; OPM2, 1, 10, 30 μg/mL, regression fit): exponential increase | Km ([2]; Table 2, OPM-2, 1 μg/mL): 44.8 µM | n (Hill coefficient) ([2]; Table 2, OPM-2, 1 μg/mL): 1.47 | Vmax ([2]; Table 2, OPM-2, 1 μg/mL, in µM/min): 21.38 | Km ([2]; Table 2, OPM-2, 10 μg/mL): 35.5 µM | n (Hill coefficient) ([2]; Table 2, OPM-2, 10 μg/mL): 1.59 | Vmax ([2]; Table 2, OPM-2, 10 μg/mL, in µM/min): 22.71 | Km ([2]; Table 2, OPM-2, 30 μg/mL): 48.2 µM | n (Hill coefficient) ([2]; Table 2, OPM-2, 30 μg/mL): 1.49 | Vmax ([2]; Table 2, OPM-2, 30 μg/mL, in µM/min): 184.79 | viability at 16 h, 1 μg/mL ([3]; 1 μg/mL): ~85% | viability at 16 h, 30 μg/mL ([3]; 30 μg/mL): ~70%
